# Reference: patent US7241776B2, “Cyanoamidine P2X7 antagonists for the treatment of pain” (Abbott Laboratories, priority 2004, dated 2007)
row,Compound,melting point [°C]
1,"Cc1ccccc1CC(=NC#N)NC(NC(=O)Cc1ccc2cccnc2c1)C(C)(C)C (stereo not drawn) [Example 11, N-(1-{[N-cyano-2-(2-methylphenyl)ethanimidoyl]amino}-2,2-dimethylpropyl)-2-quinolin-7-ylacetamide]",165 to 166
2,"COc1ccc(CC(=O)NC(NC(Cc2ccccc2C)=NC#N)C(C)(C)C)cc1OC (stereo not drawn) [Example 3, N-(1-{[N-cyano-2-(2-methylphenyl)ethanimidoyl]amino}-2,2-dimethylpropyl)-2-(3,4-dimethoxyphenyl)acetamide]",153 to 155
3,"CCSc1ccc(CC(=O)NC(NC(Cc2ccccc2C)=NC#N)C(C)(C)C)cc1 (stereo not drawn) [Example 14, N-(1-{[N-cyano-2-(2-methylphenyl)ethanimidoyl]amino}-2,2-dimethylpropyl)-2-[4-(ethylthio)phenyl]acetamide]",196 to 198
4,Cc1ccccc1CC(=NC#N)NC(NC(=O)CF)C(C)(C)C (stereo not drawn),151 to 152
5,"Cc1ccccc1CC(=NC#N)NC(NC(=O)CCCc1cccs1)C(C)(C)C (stereo not drawn) [Example 12, N-(1-{[N-cyano-2-(2-methylphenyl)ethanimidoyl]amino}-2,2-dimethylpropyl)-4-thien-2-ylbutanamide]",154 to 155
6,"Cc1ccccc1CC(=NC#N)NC(NC(=O)Cc1ccc2ncccc2c1)C(C)(C)C (stereo not drawn) [Example 10, N-(1-{[N-cyano-2-(2-methylphenyl)ethanimidoyl]amino}-2,2-dimethylpropyl)-2-quinolin-6-ylacetamide]",172 to 173
7,"Cc1ccccc1CC(=NC#N)NC(NC(=O)Cc1ccc2c(c1)OCCO2)C(C)(C)C (stereo not drawn) [Example 7, N-(1-{[N-cyano-2-(2-methylphenyl)ethanimidoyl]amino}-2,2-dimethylpropyl)-2-(2,3-dihydro-1,4-benzodioxin-6-yl)acetamide]",180 to 181
8,"COc1ccc(CC(=O)NC(NC(Cc2ccccc2C)=NC#N)C(C)(C)C)cc1 (stereo not drawn) [Example 4, N-(1-{[N-cyano-2-(2-methylphenyl)ethanimidoyl]amino}-2,2-dimethylpropyl)-2-(4-methoxyphenyl)acetamide]",199 to 201
9,"Cc1ccccc1CC(=NC#N)NC(NC(=O)Cc1cccc2ccccc12)C(C)(C)C (stereo not drawn) [Example 9, N-(1-{[N-cyano-2-(2-methylphenyl)ethanimidoyl]amino}-2,2-dimethylpropyl)-2-(1-naphthyl)acetamide]",97 to 100
10,"Cc1ccccc1CC(=NC#N)NC(NC(=O)Cc1ccc2c(c1)OCO2)C(C)(C)C (stereo not drawn) [Example 5, 2-(1,3-benzodioxol-5-yl)-N-(1-{[N-cyano-2-(2-methylphenyl)ethanimidoyl]amino}-2,2-dimethylpropyl)acetamide]",167 to 169
11,"Cc1ccccc1CC(=NC#N)NC(NC(=O)Cc1ccccc1)C(C)(C)C (stereo not drawn) [Example 1, N-(1-{[N-cyano-2-(2-methylphenyl)ethanimidoyl]amino}-2,2-dimethylpropyl)-2-phenylacetamide]",182 to 183
12,"Cc1ccccc1CC(=NC#N)NC(NC(=O)Cc1ccc(F)c(F)c1)C(C)(C)C (stereo not drawn) [Example 13, N-(1-{[N-cyano-2-(2-methylphenyl)ethanimidoyl]amino}-2,2-dimethylpropyl)-2-(3,4-difluorophenyl)acetamide]",178 to 179
13,"Cc1ccccc1CC(=NC#N)NC(NC(=O)Cc1ccc(Cl)cc1)C(C)(C)C (stereo not drawn) [Example 2, 2-(4-chlorophenyl)-N-(1-{[N-cyano-2-(2-methylphenyl)ethanimidoyl]amino}-2,2-dimethylpropyl)acetamide]",183 to 185
14,"Cc1ccccc1CC(=NC#N)NC(NC(=O)Cc1ccc(C#N)cc1)C(C)(C)C (stereo not drawn) [Example 6, N-(1-{[N-cyano-2-(2-methylphenyl)ethanimidoyl]amino}-2,2-dimethylpropyl)-2-(4-cyanophenyl)acetamide]",199 to 201

# Now from value to compound:
row,melting point [°C],Compound
1,171 to 172,"COc1ccc(CCCC(=O)NC(NC(Cc2ccccc2C)=NC#N)C(C)(C)C)cc1 (stereo not drawn) [Example 16, N-(1-{[N-cyano-2-(2-methylphenyl)ethanimidoyl]amino}-2,2-dimethylpropyl)-4-(4-methoxyphenyl)butanamide]"
2,201 to 202,"CSc1ccc(CC(=O)NC(NC(Cc2ccccc2C)=NC#N)C(C)(C)C)cc1 (stereo not drawn) [Example 15, N-(1-{[N-cyano-2-(2-methylphenyl)ethanimidoyl]amino}-2,2-dimethylpropyl)-2-[4-(methylthio)phenyl]acetamide]"
3,164 to 165,"COc1ccc(CC(=O)NC(NC(Cc2cccnc2C)=NC#N)C(C)(C)C)cc1OC (stereo not drawn) [Example 21, N-(1-{[N-cyano-2-(2-methylpyridin-3-yl)ethanimidoyl]amino}-2,2-dimethylpropyl)-2-(3,4-dimethoxyphenyl)acetamide]"
4,103 to 104,"COc1ccc(CCC(C)NC(Cc2ccccc2C)=NC#N)cc1 (stereo not drawn) [Example 35, N′-cyano-N-[3-(4-methoxyphenyl)-1-methylpropyl]-2-(2-methylphenyl)ethanimidamide]"
5,118 to 119,"Cc1ncccc1CC(=NC#N)NC(NC(=O)Cc1ccc(Cl)cc1)C(C)(C)C (stereo not drawn) [Example 20, 2-(4-chlorophenyl)-N-(1-{[N-cyano-2-(2-methylpyridin-3-yl)ethanimidoyl]amino}-2,2-dimethylpropyl)acetamide]"
6,203 to 205,"COc1ccc(CC(=O)NC(NC(=NC#N)c2cccc3ncccc23)C(C)(C)C)cc1OC (stereo not drawn) [Example 24, N-(1-{[(cyanoimino)(quinolin-5-yl)methyl]amino}-2,2-dimethylpropyl)-2-(3,4-dimethoxyphenyl)acetamide]"
7,52 to 54,"CC[C@@H](NC(Cc1cccnc1C)=NC#N)c1ccccc1 [Example 57, N′-cyano-2-(2-methylpyridin-3-yl)-N-[(1R)-1-phenylpropyl]ethanimidamide]"
8,84 to 86,"Cc1ccccc1CC(=NC#N)NC(NC(=O)Cc1cccnc1)C(C)(C)C (stereo not drawn) [Example 18, N-(1-{[N-cyano-2-(2-methylphenyl)ethanimidoyl]amino}-2,2-dimethylpropyl)-2-pyridin-3-ylacetamide]"
9,193 to 194,"Cc1ncccc1CC(=NC#N)N[C@@H]1CCCc2ccccc21 [Example 58, N′-cyano-2-(2-methylpyridin-3-yl)-N-[(1R)-1,2,3,4-tetrahydronaphthalen-1-yl]ethanimidamide]"
10,141 to 142,"N#CN=C(Cc1ccccc1F)N[C@@H]1CCc2ccccc21 [Example 50, N′-cyano-N-[(1R)-2,3-dihydro-1H-inden-1-yl]-2-(2-fluorophenyl)ethanimidamide]"
11,151 to 152,"Cc1ccccc1CC(=NC#N)NC(NC(=O)CCCCc1ccccc1)C(C)(C)C (stereo not drawn) [Example 17, N-(1-{[N-cyano-2-(2-methylphenyl)ethanimidoyl]amino}-2,2-dimethylpropyl)-5-phenylpentanamide]"
12,109 to 110,"Cc1ccccc1C(=NC#N)NC(NC(=O)Cc1ccc(Cl)cc1)C(C)(C)C (stereo not drawn) [Example 19, 2-(4-chlorophenyl)-N-(1-{[(cyanoimino)(2-methylphenyl)methyl]amino}-2,2-dimethylpropyl)acetamide]"
13,186 to 188,"CC(C)(C)C(NC(=O)Cc1ccc(Cl)cc1)NC(Cc1cccc2ncccc12)=NC#N (stereo not drawn) [Example 23, 2-(4-chlorophenyl)-N-(1-{[N-cyano-2-quinolin-5-ylethanimidoyl]amino}-2,2-dimethylpropyl)acetamide]"
